What was measured:
Type in all cases: physicochemical
[1] = Stability of compound 1/MCT solution (60 μg/g) kept with gelatin piece at 40° C. for 21 days; details: MCT solution, percentage of theoretical amount (60 μg/g)
Procedure: One hundred (100) parts by weight of gelatin (type A, high bloom, SKW Biosystems #195F) and 35 parts by weight of a plasticizer shown in Table 2 were mixed in water and dried to give gelatin piece. Compound 1 was dissolved in medium chain fatty acid triglyceride (USP/NF grade) to give a liquid mixture comprising 60 μg/g of the compound. 0.5 g of the liquid mixture and 0.5 g of each gelatin piece were put together in a sealed container and kept at 40° C. for 21 days. Then, the concentration of compound 1 contained in the liquid mixture was determined in the same manner as Reference Example 1.

[2] = Stability of soft gelatin capsule of compound 1 at 40° C.; details: MCT fill 240 μg/g; for conc. (% of Initial) 40° C. 2 mo: 2 months; for conc. (% of Initial) 40° C. 3 mo: 3 months
Procedure: Sugar alcohol solution derived from corn starch in an amount shown in Table 3 was added in an appropriate amount of water, stirred and heated. Then, gelatin 100 parts by weight was added thereto to give gelatin solution. Compound 1 was dissolved in medium chain fatty acid triglyceride (USP/NF grade) to give a fill solution containing 240 μg/g of compound 1. The gelatin solution and the liquid mixture were loaded on capsule forming and filling machine to give capsule containing the fill solution therein, and the capsule was dried to give soft gelatin capsule.
The capsule was put in a sealed container and kept at 40° C. for 3 months. The concentration of compound 1 in the fill solution contained in the capsule was determined after 1, 2 and 3 months storage in the same manner as Reference Example 1.

[3] = Storage stability of compound 1 solution (240 μg/g) in a vehicle at 55° C., HPLC assay; details: percentage of theoretical amount (240 μg/g); for concentration of compound 1, day 10: 55° C., 10 days
Procedure: Compound 1 was dissolved in a vehicle shown in table 1 below to give 240 μg/g solution (sample). The precise concentration of compound 1 in the sample was determined by means of HPLC (day 0). Then, the sample was put in a hard grass container and kept at 55° C. for 10 days, and then the precise concentration of the compound 1 in the sample was determined by means of HPLC (day 10).
The determination of the concentration of the compound in the sample was carried out as follows. About 0.2 g of the sample was mixed with exactly 2 ml of internal standard solution and then with a dissolving agent shown in Table 1 to give 5 mL of sample solution. About 12 mg of the reference standard compound 1 was weighted precisely and added with acetonitrile to give exactly 100 ml solution. Exactly 0.8 ml of the solution was obtained and added with exactly 4 ml of the internal standard solution, and then added with the dissolving agent to give 10 ml of standard solution.
The fluorescent labeling agent was added to the respective solution, stirred and stood at room temperature. Then, respective solution in an amount that theoretically gives 3.6 ng of compound 1 was loaded on the column and analyzed under the condition as follows:
Column: 5 mm×25 cm stainless steel column packed with octadecylsilane treated silica gel for HPLC (5 μm)
Mobile phase: mixture of acetonitrile HPLC grade: methanol HPLC grade: ammonium acetate (0.05 mol/L)
Detector: spectrophotofluorometer

[4] = capsule shell gelatin 100 / sugar alcohol solution 35 parts by weight
[5] = capsule shell gelatin 100 / sugar alcohol solution 45 parts by weight
[6] = capsule shell gelatin 100 / sugar alcohol solution 55 parts by weight
[7] = vehicle polyethylene glycol 400

concentration of compound 1 after storage ([1]; gelatin piece with glycerin plasticizer (water content 23%)): 86.8%
concentration of compound 1 after storage ([1]; gelatin piece with sugar alcohol solution derived from corn starch as plasticizer (water content 25%)): 92.0%
conc. (% of Initial) 40° C. 1 mo ([2]; capsule shell gelatin 100 / sugar alcohol solution 35 parts by weight, 1 month): 99.9%
conc. (% of Initial) 40° C. 2 mo [2, 4]: 100.3%
conc. (% of Initial) 40° C. 3 mo [2, 4]: 99.2%
conc. (% of Initial) 40° C. 2 mo [2, 5]: 100.5%
conc. (% of Initial) 40° C. 3 mo [2, 5]: 100.0%
conc. (% of Initial) 40° C. 2 mo [2, 6]: 99.3%
conc. (% of Initial) 40° C. 3 mo [2, 6]: 100.0%
concentration of compound 1, day 10 ([3]; vehicle glycerin): 78.0%
concentration of compound 1, day 0 ([3]; vehicle glycerin): 92.0%
concentration of compound 1, day 10 ([3]; vehicle hydrogenated maltose starch syrup): 24.4%
concentration of compound 1, day 10 [3, 7]: 90.1%
concentration of compound 1, day 0 [3, 7]: 98.2%
concentration of compound 1, day 10 ([3]; vehicle propylene glycol): 88.6%
concentration of compound 1, day 0 ([3]; vehicle propylene glycol): 97.8%
concentration of compound 1, day 10 ([3]; vehicle sugar alcohol solution derived from corn starch (Polysorb 85/70/00)): 26.2%
SMILES: CCCCC(F)(F)[C@@]1(O)CC[C@H]2[C@@H](CC(=O)[C@@H]2CCCCCCC(=O)O)O1 [compound 1, 7-[(2R,4aR,5R,7aR)-2-(1,1-difluoropentyl)-2-hydroxy-6-oxooctahydrocyclopenta[b]pyran-5-yl]heptanoic acid]

From patent publication US20140287036A1, “SOFT-GELATIN CAPSULE FORMULATION” (SUCAMPO AG, priority 2006, published 2014)
